Assay results reported in patent US8829014B2, “Thiazole and thiophene analogues, and their use in treating autoimmune diseases and cancers” (Board of Supervisors of Louisiana State University and …, priority 2006, dated 2014).

System: carageenan-induced edema
Assay: Carrageenan-induced rat paw edema test (anti-inflammatory activity)
Assay type: in vivo, Sprague-Dawley rats
Settings: Rattus norvegicus, po, 3 h, rat paw edema, 50 mg/kg, reading 3 hours after carrageenan; [(Control−Test)/Control]×100%; read-out: % Protection P
Procedure: Sprague-Dawley rats, male and female, 150-250 g will be used in an edema test. Rats will be deprived of food but not water for 18 hours prior to the experiment. The test compounds will be administered with a blunt-tipped needle orally, 50 mg/kg, as a suspension in 0.1% sodium CMC (carboxymethylcellulose) vehicle. Alternatively, the test compounds will be injected intravenously, subcutaneously, or intraperitoneally. One hour later, 0.1 ml of a 1% carrageenan solution in saline will be injected in the sub-plantar region of the right hind paw of each rat. […] The reading will be repeated 3 hours later. The displacement readings give a measure of carageenan-induced edema. Any reduction in carageenan-induced edema with a test compound, as compared to saline control, is a measure of the anti-inflammatory activity of the test compound. The percentage protection at 50-mg/kg doses was calculated according to the following formula: % Protection=[(Control−Test)/Control]×100%.
Following treatment, the media from the VSMC and HUVEC incubations were removed, and the amount of lactate dehydrogenase (LDH) released into the medium was determined with a commercial kit and expressed as a % increase over vehicle-treated cells. HPT toxicity was determined by the ethidium homodimer (EthHD) uptake assay. […] The lead compounds were also tested in two pairs of cell lines from the skin or prostate, one tumorigenic and one non-tumorigenic, to test for differing toxicity or heightened sensitivity in the tumorigenic lines. The cells were treated for 48 h with vehicle (0.1% DMSO) or 10 μM of each drug candidate, and the viability of the cells was determined by the MTT assay, expressed as a % decrease in viability compared to vehicle-treated cells. The in vivo inflammation model measured the % inhibition of rat paw edema induced by carageenan injection.

| Compound | inhibition in vivo at 50 mg/kg |
| --- | --- |
| CCN(CC)C(/C=N/C(=S)NC(=O)c1ccccc1)c1ccccc1 (stereo not drawn) [Example 38, 1-Benzoyl-3-[1-diethylamino-1-phenyl-eth-(E)-ylidene]-thiourea] | 10.9% |
| COC(=O)Nc1nc(C)c(C(=O)c2sc(NC(=O)OC)nc2C)s1 [Example 123, Dimethyl[carbonyl-bis(4-methyl-1,3-thiazole-5,2-diyl)]biscarbamate] | 23.9% |
| O=C(c1ccncc1)c1cc(-c2cccnc2)c(N2CCOCC2)s1 [Example 99, (5-Morpholin-4-yl-4-pyridin-3-yl-thiophen-2-yl)-pyridin-4-yl-methanone] | 26% |
| O=C(c1ccccc1)c1cc(-c2ccc(Cl)cc2)c(N2CCOCC2)s1 [Example 78, [4-(4-Chloro-phenyl)-5-morpholin-4-yl-thiophen-2-yl]-phenyl-methanone] | -48.3% |
| O=C(c1cccnc1)c1cc(-c2ccccc2)c(N2CCOCC2)s1 [Example 50, (5-Morpholin-4-yl-4-phenyl-thiophene-2-yl)-pyridine-3-yl-methanone] | 6.9% |
| CSc1ccc(C(=O)c2cc(-c3ccc(S(C)(=O)=O)cc3)c(N3CCOCC3)s2)cc1 [Example 59, [4-(4-Methanesulfonyl-phenyl)-5-morpholin-4-yl-thiophene-2-yl]-(4-methylsulfanyl-phenyl)-methanone] | 45.8% |
| O=C(c1ccc(Cl)cc1)c1cc(-c2ccncc2)c(N2CCOCC2)s1 [Example 105, (4-Chloro-phenyl)-(5-morpholin-4-yl-4-pyridin-4-yl-thiophen-2-yl)-methanone] | 47.2% |
| COc1ccc(Nc2nc(NC(=O)Nc3ccc(F)cc3)c(C(=O)c3ccc(Cl)cc3)s2)cc1 [Example 363, 1-[5-(4-Chloro-benzoyl)-2-(4-methoxy-phenylamino)-thiazol-4-yl]-3-(4-fluoro-phenyl)-urea] | 54.5% |
| Cc1ccc(C(=O)c2cc(-c3ccc(S(C)(=O)=O)cc3)c(N3CCOCC3)s2)cc1 [Example 55, [4-(4-Methanesulfonyl-phenyl)-5-morpholin-4-yl-thiophene-2-yl]-p-tolyl-methanone] | -13.5% |
| O=C(c1ccc(Cl)cc1)c1cc(-c2ccccc2)c(N2CCOCC2)s1 [Example 45, (4-Chloro-phenyl)-(5-morpholin-4-yl-4-phenyl-thiophene-2-yl)-methanone] | 53.5% |
| Nc1nc(Nc2ccccc2)sc1C(=O)c1ccncc1 [Example 328, (4-Amino-2-phenylamino-thiazol-5-yl)-pyridin-4-yl-methanone] | 76% |
| O=C(c1ccc(Cl)cc1)c1cc(-c2ccc(Cl)cc2)c(N2CCOCC2)s1 [Example 81, (4-Chloro-phenyl)-[4-(4-chloro-phenyl)-5-morpholin-4-yl-thiophen-2-yl]-methanone] | 20% |
| CN1CCN(c2sc(-c3nc4ccccc4c(=O)n3-c3ccc(Cl)cc3)cc2-c2ccc(S(C)(=O)=O)cc2)CC1 [Example 318, 3-(4-Chlorophenyl)-2-[4-(4-methanesulfonyl-phenyl)-5-(4-methyl-piperazine-1-yl)-thiophen-2-yl]-3H-quinazolin-4-one] | 21% |
| Cc1ccc(-n2c(-c3cc(-c4ccc(S(C)(=O)=O)cc4)c(N4CCOCC4)s3)nc3ccccc3c2=O)cc1 [Example 292, 2-[4-(4-Methanesulfonyl-phenyl)-5-morpholin-4-yl-thiophen-2-yl]-3-p-tolyl-3H-quinazolin-4-one] | 31% |
| CS(=O)(=O)c1ccc(C(=O)c2sc(Nc3ccccc3)nc2N)cc1 [Example 325, (4-Amino-2-phenylamino-thiazol-5-yl)-(4-methanesulfonyl-phenyl)-methanone] | 12% |
| Nc1nc(Nc2ccccc2)sc1C(=O)c1ccccn1 [Example 329, (4-Amino-2-phenylamino-thiazol-5-yl)-pyridin-2-yl-methanone] | 54% |
| COc1ccc(Nc2nc(NC(=O)Nc3ccc(F)cc3)c(C(=O)c3ccncc3)s2)cc1 [Example 365, 1-(4-Fluoro-phenyl)-3-[2-(4-methoxy-phenylamino)-5-(pyridine-4-carbonyl)-thiazol-4-yl]-urea] | 69.6% |
| COc1ccc(C(=O)c2cc(-c3cccnc3)c(N3CCOCC3)s2)cc1 [Example 92, (4-Methoxy-phenyl)-(5-morpholin-4-yl-4-pyridin-3-yl-thiophen-2-yl)methanone] | 69% |
| CC(=O)Nc1ccc(-c2cc(C(=O)c3ccc(Cl)cc3)sc2N2CCOCC2)cc1 [Example 69, N-{4-[5-(4-Chloro-benzoyl)-2-morpholin-4-yl-thiophene-3-yl]-phenyl}-acetamide] | -21.8% |
| COc1ccc(Nc2nc(N)c(C(=O)c3ccc(OC)cc3)s2)cc1 [Example 343, ([4-Amino-2-(4-methoxy-phenylamino)-thiazol-5-yl]-(4-methoxy-phenyl)-methanone)] | 54% |
| O=C(Nc1nc(-c2ccccc2)c(C(=O)c2sc(NC(=O)c3ccco3)nc2-c2ccccc2)s1)c1ccco1 [Example 129, Bis-[2-(2-Furoyl-amino)-4-phenyl-thiazole-5-yl]-methanone] | 55% |
| O=C(c1cc(-c2cccnc2)c(N2CCOCC2)s1)c1ccc(Cl)cc1Cl [Example 94, (2,4-Dichloro-phenyl)-(5-morpholin-4-yl-4-pyridin-3-yl-thiophen-2-yl)-methanone] | -51.4% |
| COc1ccc(Nc2nc(N)c(C(=O)c3ccncc3)s2)cc1 [Example 350, ([4-Amino-2-(4-methoxy-phenylamino)-thiazol-5-yl]-pyridin-4-yl-methanone)] | 25.8% |
| COc1c(C)cnc(-c2sc(Nc3ccccc3)nc2N)c1C [Example 330, 5-(4-Methoxy-3,5-dimethyl-pyridin-2-yl)-N2-phenyl-thiazole-2,4-diamine] | 24% |
| Cc1ccccc1-n1c(-c2cc(-c3ccc(S(C)(=O)=O)cc3)c(N3CCOCC3)s2)nc2ccccc2c1=O [Example 281, 2-[4-(4-Methanesulfonylphenyl)-5-morpholin-4-yl-thiophen-2-yl]-3-o-tolyl-3H-quinazolin-4-one] | 50% |
| O=C(c1ccncc1)c1cc(-c2ccc(Cl)cc2)c(N2CCOCC2)s1 [Example 87, [4-(4-Chloro-phenyl)-5-morpholin-4-yl-thiophen-2-yl]-pyridin-4-yl-methanone] | 35% |

Same assay, conditions: rat paw edema, 50 mg/kg, reading 3 hours after carrageenan; [(Control−Test)/Control]×100%

| Compound | % Protection P |
| --- | --- |
| CC(=O)Nc1ccc(-c2cc(C(=O)c3cc(OCC(F)(F)F)c(C)cn3)sc2N2CCOCC2)cc1 [Example 65, N(4-{5-[5-Methyl-4-(2,2,2-trifluoro-ethoxy)-pyridine-2-carbonyl]-2-morpholin-4-yl-thiophen-3-yl}-phenyl)-acetamide] | 30% |
| CSc1ccc(C(=O)c2cc(-c3ccc(Cl)cc3)c(N3CCOCC3)s2)cc1 [Example 83, [4-(4-Chloro-phenyl)-5-morpholin-4-yl-thiophen-2-yl]-(4-methansulfanyl-phenyl)-methanone] | 27% |
| 4-{5-[5-Methyl5-(2,2,2-trifluoro-ethoxy)-pyridin-2-yl]-3-pyridin-4-yl-thiphen-2-yl}-morpholine [Example 101] | 47% |

Same assay, conditions: rat paw edema, 50 mg/kg, reading 3 hours after carrageenan; [(Control−Test)/Control]×100%; 50 mg/kg

| Compound | % Protection P |
| --- | --- |
| COc1ccc(C(=O)c2sc(Nc3ccccc3)nc2N)cc1 [Example 321, 4-Amino-(2-phenylamino-thiazol-5-yl)-(4-methoxy-phenyl)-methanone] | 12.25% |
